In patent publication US20260014130A1, “FORMULATIONS OF CAPSID INHIBITOR” (Gilead Sciences, Inc., priority 2024, published 2026):

Assays:
[1] = system: HIV-1; test: In vitro protein binding-adjusted 95% effective concentration (paEC95) and inhibitory quotient; type: cell-based
[2] = system: HIV; details: twice-yearly SC 927 mg (two 1.5 mL injections of 309 mg/mL), oral loading 600 mg days 1 and 2; cited from earlier work
[3] = in vivo, sc; cited from earlier work
[4] = cited from earlier work

## CC(C)(C#Cc1ccc(-c2ccc(Cl)c3c(NS(C)(=O)=O)nn(CC(F)(F)F)c23)c([C@H](Cc2cc(F)cc(F)c2)NC(=O)Cn2nc(C(F)(F)F)c3c2C(F)(F)[C@@H]2C[C@H]32)n1)S(C)(=O)=O [lenacapavir]
[1]
  in vitro paEC95 (protein binding-adjusted 95% effective concentration): 3.87 ng/mL
[1]; plasma concentration threshold
  inhibitory quotient-4 (IQ4; 4-fold in-vitro protein binding-adjusted 95% effective concentration): 15.5 ng/mL
[2]
  efficacy in cisgender men and gender-diverse people: 99.9%
  efficacy in cisgender women: 100%
[3]
  highest observed mean concentration: 72.1 ng/mL
[4]; observed previously, well tolerated
  systemic lenacapavir exposures relative to those achieved with the intramuscular formulations: approximately 3 fold
[4]; supratherapeutic total dose of 9600 mg of oral lenacapavir
  mean Cmax: 1070.4 ng/mL
